Molecules are shown by their SMILES.

For 34 compounds, inhibition results are on record in US6803378B2, “HIV integrase inhibitors” (Bristol-Myers Squibb Company, priority 2000, dated 2004).

One assay concerns the target T1, HIV Integrase (Human immunodeficiency virus type 1 group M subtype B, UniProt P04585).
T1 construct: 0.26 ng of recombinant integrase was then incubated with the beads
Briefly: In vitro activity against integrase, Method B (SPA assay). Type of assay: biochemical. To be noted: read-out: Percent inhibition of HIV Integrase at 70 uM. As for the experimental part:
(§1) The in vitro activities, against integrase, of compounds of the present invention were measured by one of the following three methods.
(§2) In Method B, the in vitro activity against integrase was measured by binding, for each reaction, 5 pmole of biotin labeled substrate DNA to 100 ug of Streptavidin coated PVT SPA beads (Amersham Pharmacia Biotech). 0.26 ng of recombinant integrase was then incubated with the beads for 90 min at 37° C. Unbound enzyme was removed by washing the complex followed by addition of inhibitors and 0.1 fmol of P33 labeled target DNA. Reaction was stopped by adding EDTA to a final concentration of 10 mM. Samples were counted in TopCountNXT (Packard) and the CPM was used as a measure of integration. Reaction condition was as described in A. Engelman and R. Craigie, J. Virol. 69, 5908-5911 (1995). The sequences of substrate and target DNA were described in Nucleic Acid Research 22, 1121-1122 (1994).
As for `Cc1cc(CN(C)C(=O)/C=C(\O)C(=O)O)ccc1F` [Compound 61, 3-[(4-Fluoro-3-methyl-benzyl)-methyl-carbamoyl]-2-hydroxy-acrylic acid], the inhibition at 70 µM came to 99%.

In the case of `O=C(O)/C(O)=C/C(=O)N(Cc1ccc(F)cc1)c1ccc(Cl)cc1` [Compound 70, 3-[(4-Chloro-phenyl)-(4-fluoro-benzyl)-carbamoyl]-2-hydroxy-acrylic acid], the inhibition at 70 µM came out at 92%.

As for `CN(Cc1ccc2ccccc2c1)C(=O)/C=C(\O)C(=O)O` [Compound 54, 2-Hydroxy-3-(methyl-naphthalen-2-ylmethyl-carbamoyl)-acrylic acid], the inhibition at 70 µM worked out at 99%.

`Cc1ccc(CN(C(=O)/C=C(\O)C(=O)O)c2ccc(F)cc2)cc1` [Compound 73, 3-[(4-Fluoro-phenyl)-(4-methyl-benzyl)-carbamoyl]-2-hydroxy-acrylic acid]: the inhibition at 70 µM was 99%.

As for `COc1cc(CN(C)C(=O)/C=C(\O)C(=O)O)ccc1F` [Compound 60, 3-[(4-Fluoro-3-methoxy-benzyl)-methyl-carbamoyl]-2-hydroxy-acrylic acid], the inhibition at 70 µM is 99%.

For the compound `O=C(CCCCCNC(=O)/C(O)=C/C(=O)N(Cc1ccc(F)cc1)Cc1ccc(F)cc1)NS(=O)(=O)c1ccccc1` [Compound 146, 2-Hydroxy-but-2-enedioic acid 1-[(6-benzenesulfonylamino-6-oxo-hexyl)-amide] 4-[bis-(4-fluoro-benzyl)-amide]], the inhibition at 70 µM was determined as 98%.

Consider `Cc1ccc(CN(C(=O)/C=C(\O)C(=O)O)c2ccc(Cl)cc2)cc1` [Compound 71, 3-[(4-Chloro-phenyl)-(4-methyl-benzyl)-carbamoyl]-2-hydroxy-acrylic acid], for which the inhibition at 70 µM amounted to 99%.

Regarding `CN(Cc1ccc(F)c(Cl)c1)C(=O)/C=C(\O)C(=O)O` [Compound 58, 3-[(3-Chloro-4-fluoro-benzyl)-methyl-carbamoyl]-2-hydroxy-acrylic acid], the inhibition at 70 µM came out at 99%.

Turning to `CN(Cc1cccc(-c2ccc(F)cc2)c1)C(=O)/C=C(\O)C(=O)O` [Compound 63, 3-[(4′-Fluoro-biphenyl-3-ylmethyl)-methyl-carbamoyl]-2-hydroxy-acrylic acid], the inhibition at 70 µM came out at 98%.

As for `CN(Cc1ccc(F)cc1)C(=O)/C=C(\O)C(=O)O` [Compound 16, 3-[(4-Fluoro-benzyl)-methyl-carbamoyl]-2-hydroxy-acrylic acid], the inhibition at 70 µM was determined as 97%.

Consider `CN(Cc1ccc(F)c(F)c1)C(=O)/C=C(\O)C(=O)O` [Compound 59, 3-[(3,4-Difluoro-benzyl)-methyl-carbamoyl]-2-hydroxy-acrylic acid], for which the inhibition at 70 µM turned out to be 98%.

Take `O=C(O)/C(O)=C/C(=O)N(Cc1ccc(F)cc1)c1ccc(F)cc1` [Compound 72, 3-[(4-Fluoro-benzyl)-(4-fluoro-phenyl)-carbamoyl]-2-hydroxy-acrylic acid]: the inhibition at 70 µM came out at 99%.

For `O=C(O)/C(O)=C/C(=O)N(Cc1ccc(F)cc1)Cc1ccco1` [Compound 74, 3-[(4-Fluoro-benzyl)-furan-2-ylmethyl-carbamoyl]-2-hydroxy-acrylic acid], the inhibition at 70 µM came out at 98%.

Take `CN(Cc1ccccc1Cc1ccccc1)C(=O)/C=C(\O)C(=O)O` [Compound 84, 3-[(2-Benzyl-benzyl)-methyl-carbamoyl]-2-hydroxy-acrylic acid]: the inhibition at 70 µM worked out at 88%.

Turning to `CN(Cc1ccccc1Cc1ccc(F)cc1)C(=O)/C=C(\O)C(=O)O` [Compound 81, 3-{[2-(4-Fluoro-benzyl)-benzyl]-methyl-carbamoyl}-2-hydroxy-acrylic acid], the inhibition at 70 µM stood at 95%.

Turning to `CN(CCC(c1ccc(F)cc1)c1ccc(F)cc1)C(=O)/C=C(\O)C(=O)O` [Compound 80, 3-{[3,3-Bis-(4-fluoro-phenyl)-propyl]-methyl-carbamoyl}-2-hydroxy-acrylic acid], the inhibition at 70 µM amounted to 90%.

For `O=C(O)/C(O)=C/C(=O)N(Cc1ccc(F)cc1)Cc1ccc2ccccc2c1` [Compound 53, 3-[(4-Fluoro-benzyl)-naphthalen-2-ylmethyl-carbamoyl]-2-hydroxy-acrylic acid], the inhibition at 70 µM came to 99%.

In the case of `CN(Cc1cccc(Oc2ccccc2)c1)C(=O)/C=C(\O)C(=O)O` [Compound 64, 2-Hydroxy-3-[methyl-(3-phenoxy-benzyl)-carbamoyl]-acrylic acid], the inhibition at 70 µM is 95%.

Consider `O=C(O)/C(O)=C/C(=O)N(Cc1ccc2ccccc2c1)c1ccc(Cl)cc1` [Compound 55, 3-[(4-Chloro-phenyl)-naphthalen-2-ylmethyl-carbamoyl]-2-hydroxy-acrylic acid], for which the inhibition at 70 µM turned out to be 99%.

With `O=C(O)/C(O)=C/C(=O)N(Cc1ccc(Cl)cc1)Cc1ccc(Cl)cc1` [Compound 57, 3-[Bis-(4-chloro-benzyl)-carbamoyl]-2-hydroxy-acrylic acid], the inhibition at 70 µM amounted to 99%.

For `Cc1ccc(CNC(=O)/C=C(\O)C(=O)O)cc1F` [Compound 91, 3-(3-Fluoro-4-methyl-benzylcarbamoyl)-2-hydroxy-acrylic acid], the inhibition at 70 µM was 99%.

For `COc1ccc(CN(Cc2ccc(F)cc2)C(=O)/C=C(\O)C(=O)O)cc1Cl` [Compound 76, 3-[(3-Chloro-4-methoxy-benzyl)-(4-fluoro-benzyl)-carbamoyl]-2-hydroxy-acrylic acid], the inhibition at 70 µM was 99%.

For `O=C(O)/C(O)=C/C(=O)N(Cc1ccccc1)Cc1ccccc1` [Compound 14, 3-Dibenzylcarbamoyl-2-hydroxy-acrylic acid], the inhibition at 70 µM was 94.5%.

For `O=C(/C=C(\O)C(=O)O)NC(c1ccc(Cl)cc1)c1ccc(Cl)cc1` [Compound 92, 3-{[Bis-(4-chloro-phenyl)-methyl]-carbamoyl}-2-hydroxy-acrylic acid], the inhibition at 70 µM was found to be 94%.

Turning to `O=C(O)/C(O)=C/C(=O)N(CCCc1ccccc1)c1ccc(Cl)cc1` [Compound 56, 3-[(4-Chloro-phenyl)-(3-phenyl-propyl)-carbamoyl]-2-hydroxy-acrylic acid], the inhibition at 70 µM was 88%.

With `CN(Cc1cccc(Cl)c1)C(=O)/C=C(\O)C(=O)O` [Compound 62, 3-[(3-Chloro-benzyl)-methyl-carbamoyl]-2-hydroxy-acrylic acid], the inhibition at 70 µM worked out at 99%.

For another assay, the target named is T2, HIV-1 integrase (Human immunodeficiency virus type 1 group M subtype B, UniProt P04585).
T2 construct: Purified recombinant HIV-1 integrase was incubated with immobilized precleaved substrate DNA
Briefly: In vitro activity against integrase, Method A (immobilized precleaved substrate DNA, biotinylated target DNA, 96 well plate). Type of assay: biochemical. As to conditions: Assay Method A, read-out: Percent inhibition of HIV Integrase at 70 uM. As to the method: as §1
In Method A, the in vitro activity against integrase was measured in a manner which was similar to previously disclosed methods (cf. Hazuda, D. J.; Felock, P.; Witmer, M.; Wolfe, A.; Stillmock, K.; Grobler, J. A.; Espeseth, A.; Gabryelski, L.; Schleif, W.; Blau, C.; Miller, M. D. Science, 2000, 287, 646) Purified recombinant HIV-1 integrase was incubated with immobilized precleaved substrate DNA in a 96 well plate for 20 min at 37° C. After the integration complex was formed, compounds at desired concentrations were added to the wells followed by a 10 min incubation at 37° C. Biotinyted Target DNA was then added and the reaction was carried out for an additional 1 hour at 37° C. Wells were then washed thoroughly to remove any free DNA and integration activity was measured by using a commercial kit to quantitate the amount of biotinyted target DNA integrated into the substrate.
For `CN(Cc1cccc(-c2ccccc2)c1)C(=O)/C=C(\O)C(=O)O` [Compound 34, 3-(Biphenyl-3-ylmethyl-methyl-carbamoyl)-2-hydroxy-acrylic acid], the inhibition at 70 µM was determined as 85%.

In the case of `O=C(O)CNC(=O)/C(O)=C/C(=O)N(Cc1ccc(F)cc1)Cc1ccc(F)cc1` [Compound 145, {3-[Bis-(4-fluoro-benzyl)-carbamoyl]-2-hydroxy-acryloylamino}-acetic acid], the inhibition at 70 µM came to 95%.

The target of a further assay is T1, HIV Integrase. Briefly: In vitro activity against integrase, Method C (electroluminescence, ECL assay). Type of assay: biochemical. To be noted: read-out: Percent inhibition of HIV Integrase at 70 uM. As for the experimental part: as §1, §2
Method C (Electroluminesence Assay):
The ECL assay of Method C is essentially the same as the SPA assay of Method B, except that 0.5 μg of Streptavidin coated magnetic beads and 0.5 pmol Ru labeled target DNA were used for each reaction instead of SPA beads and P33 labeled DNA. The samples were read in a M8 analyzer (IGEN International, Inc).
Take `CC(C)N(CCCc1ccccc1)C(=O)/C=C(\O)C(=O)O` [Compound 44, 2-Hydroxy-3-[isopropyl-(3-phenyl-propyl)-carbamoyl]-acrylic acid]: the inhibition at 70 µM was 95.5%.

Take `CN(Cc1ccco1)C(=O)/C=C(\O)C(=O)O` [Compound 75, 3-(Furan-2-ylmethyl-methyl-carbamoyl)-2-hydroxy-acrylic acid]: the inhibition at 70 µM was 91%.

For the compound `O=C(O)/C(O)=C/C(=O)N(CCCc1ccc(-c2ccccc2)cc1)Cc1ccc(F)cc1` [Compound 85, 3-[(3-Biphenyl-4-yl-propyl)-(4-fluoro-benzyl)-carbamoyl]-2-hydroxy-acrylic acid], the inhibition at 70 µM was found to be 94%.

Consider `CN(Cc1ccc(Cl)cc1)C(=O)/C=C(\O)C(=O)O` [Compound 45, 3-[(4-Chloro-benzyl)-methyl-carbamoyl]-2-hydroxy-acrylic acid], for which the inhibition at 70 µM was found to be 99%.

In the case of `O=C(O)/C(O)=C/C(=O)N(CCc1ccncc1)Cc1ccc(F)cc1` [Compound 86, 3-[(4-Fluoro-benzyl)-(2-pyridin-4-yl-ethyl)-carbamoyl]-2-hydroxy-acrylic acid], the inhibition at 70 µM was found to be 97%.

With `CN(Cc1ccc(F)c(Br)c1)C(=O)C=C(O)C(=O)O` [Compound 48, 3-[(3-Bromo-4-fluoro-benzyl)-methyl-carbamoyl]-2-hydroxy-acrylic acid], the inhibition at 70 µM came out at 99%.
